The values that follow come from patent US20090069302A1 (SMITHKLINE BEECHAM CORPORATION, priority 2006, published 2009).

This assay addresses T1, AXOR109 (Homo sapiens, UniProt Q8TDU6).
T1 construct: expressed in transfected cells; host or cells: melanophore cells, transfected by electroporation
T1 sequence (Q8TDU6 1-330): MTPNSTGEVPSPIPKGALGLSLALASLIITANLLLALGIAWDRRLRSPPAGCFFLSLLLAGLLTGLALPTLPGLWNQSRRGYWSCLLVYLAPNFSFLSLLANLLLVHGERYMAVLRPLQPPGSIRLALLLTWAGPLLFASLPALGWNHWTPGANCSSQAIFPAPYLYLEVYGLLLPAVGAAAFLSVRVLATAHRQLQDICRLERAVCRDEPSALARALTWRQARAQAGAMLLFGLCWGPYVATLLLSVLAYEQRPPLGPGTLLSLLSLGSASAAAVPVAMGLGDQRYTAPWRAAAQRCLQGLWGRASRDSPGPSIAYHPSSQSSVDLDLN
Put plainly: Human AXOR109/Melanophore Assay. The format is cell-based. The conditions noted are these: melanophore assay; for Emax: 1 h; for EC50: AXOR109 transfected melanophores. The method, then:
AXOR109 is a Gs-coupled receptor and therefore increases intracellular cAMP leading to melanosome dispersion. Compounds of the present invention were characterized in a melanophore assay as described in Jayawickreme C K, et al., Current Protocols in Pharmacology (2005) 12.9.1-12.9.16. Briefly, melanophore cells are transfected by electroporation with AXOR109 expressing cDNA. Cells are then plated in 384 well clear bottom plates at 8E3 cells per well in 50 μl of conditioned fibroblast media (CFM). Compounds to be tested are serially diluted 3-fold in DMSO and further diluted 1:100 with melanophore assay buffer (MAB)+10 nM Melatonin to yield 11 point concentration response curves. Following 2 hour incubation with MAB+1% DMSO+10 nM Melatonin, initial transmittance is read on a TwisterII/Spectramax plate reader. Compounds are then added to the cells and incubated for 1 hour, and final transmittance is read as before. Results are compared to vehicle (MAB+1% DMSO+10 nM Melatonin) and to a positive control (MAB+1% DMSO+10 nM Melatonin+200 nM alpha-MSH). Data are calculated for each well as follows: 1-(Transmitance-final/Transmitance-initial). Each well result is then normalized to alpha-MSH, the system max control for Gs/Gq coupled receptors using the following equation: (ObjX−Control1)/(Control2−Control1)*100. The percent system max is used to generate the pEC50 using the equation: y=((Vmax*x̂n)/(K̂n+x̂n))+Y2. Acceptable Z-prime values should be >0.4. Compounds of the present invention have a pEC50≧5.0 in the above described assay.

Setting [1] is: normalized to alpha-MSH system max.

The molecule `COc1ccc(S(=O)(=O)N(C)CCN(C)S(=O)(=O)c2ccc(OC)c(OC)c2)cc1F` [Example 11, N-{2-[{[3,4-bis(methyloxy)phenyl]sulfonyl}(methyl)amino]ethyl}-3-fluoro-N-methyl-4-(methyloxy)benzenesulfonamide] had an EC50 of 126 to 1000 nM. Further, the Emax under setting [1] lay within 0 to 50%.

Regarding `CCCN(C[C@H]1CCCN1S(=O)(=O)c1ccc(OC)c(OC)c1)S(=O)(=O)c1ccc(OC)c(OC)c1` [Example 99, N-[((2R)-1-{[3,4-bis(methyloxy)phenyl]sulfonyl}-2-pyrrolidinyl)methyl]-3,4-bis(methyloxy)-N-propylbenzenesulfonamide], the EC50 is under 126 nM. The molecule further registered an Emax under setting [1] of 76 to 100%.

Consider `COc1ccc(S(=O)(=O)N2CCCN(S(=O)(=O)c3ccc(OC)c(OC(F)(F)F)c3)CC2)cc1OC` [Example 30, 1-{[3,4-bis(methyloxy)phenyl]sulfonyl}-4-({4-(methyloxy)-3-[(trifluoromethyl)oxy]phenyl}sulfonyl)hexahydro-1H-1,4-diazepine], for which the EC50 is 1260 to 10000 nM. Under setting [1], this molecule came in with an Emax of 76 to 100%.

Turning to `COc1ccc(S(=O)(=O)N2CCCCC(N(C)S(=O)(=O)c3ccc(OC)c(OC)c3)C2)cc1OC` (centres unmarked) [Example 92], the EC50 is 1260 to 10000 nM. This molecule also came in with an Emax under setting [1] of 51 to 75%.

`CCCN([C@@H]1CCN(S(=O)(=O)c2ccc(OC)c(OC)c2)C1)S(=O)(=O)c1ccc(OC)c(OC)c1` [Example 59, N-((3R)-1-{[3,4-bis(methyloxy)phenyl]sulfonyl}-3-pyrrolidinyl)-3,4-bis(methyloxy)-N-propylbenzenesulfonamide] had an EC50 of 126 to 1000 nM. This molecule had a maximal response (Emax) under setting [1] of 76 to 100%.

The molecule `COc1ccc(S(=O)(=O)N2CCN(S(=O)(=O)c3ccc(OC)c(OC)c3)CC2)cc1F` [Example 1, 1-{[3,4-bis(methyloxy)phenyl]sulfonyl}-4-{[3-fluoro-4-(methyloxy)phenyl]sulfonyl}piperazine] showed an EC50 of 126 to 1000 nM.

Turning to `COc1ccc(S(=O)(=O)N(C)CCN(C)S(=O)(=O)c2ccc3c(c2)n(C)c(=O)n3C)cc1OC` [Example 65, N-methyl-N-{2-[{[3,4-bis(methyloxy)phenyl]sulfonyl}(methyl)amino]ethyl}-1,3-dimethyl-2-oxo-2,3-dihydro-1H-benzimidazole-5-sulfonamide], the concentration for a half-maximal effect (EC50) is 1260 to 10000 nM. Besides, the Emax under setting [1] was 51 to 75%.

`COc1ccc(S(=O)(=O)NCCN(C)S(=O)(=O)c2ccc(OC)c(OC)c2)cc1OC` [Example 42, N-[2-({[3,4-bis(methyloxy)phenyl]sulfonyl}amino)ethyl]-N-methyl-3,4-bis(methyloxy)benzenesulfonamide]: the concentration for a half-maximal effect (EC50) is 1260 to 10000 nM. In addition, the Emax under setting [1] lay within 51 to 75%.

As for `COc1ccc(S(=O)(=O)N2C[C@@H](C)N(S(=O)(=O)c3ccc(OC)c(OC)c3)[C@@H](C)C2)cc1OC` [Example 79, cis-1,4-bis{[3,4-bis(methyloxy)phenyl]sulfonyl}-2,6-dimethylpiperazine], the EC50 was under 126 nM. Under setting [1], this molecule registered an Emax of over 100%.

As to `COc1ccc(S(=O)(=O)N2CC(C)N(S(=O)(=O)c3ccc(OC)c(OC)c3)C(C)C2C)cc1OC` (centres unmarked) [Example 39, 1,4-bis{[3,4-bis(methyloxy)phenyl]sulfonyl}-2,3,5-trimethylpiperazine], the EC50 is 1260 to 10000 nM. For the same molecule, the Emax under setting [1] was in the range of 0 to 50%.

With `COc1ccc(S(=O)(=O)NCC(C)N(C)S(=O)(=O)c2ccc(OC)c(OC)c2)cc1OC` (centres unmarked) [Example 66, N-[2-({[3,4-bis(methyloxy)phenyl]sulfonyl}amino)-1-methylethyl]-N-methyl-3,4-bis(methyloxy)benzenesulfonamide], the EC50 is 1260 to 10000 nM. The Emax under setting [1] was 51 to 75%.

In turn, `COc1ccc(S(=O)(=O)N2CCN(S(=O)(=O)c3ccc(OC)c(OC)c3)[C@@H](C)C2)cc1OC` [Example 19, (2S)-1,4-bis{[3,4-bis(methyloxy)phenyl]sulfonyl}-2-methylpiperazine] showed an EC50 of 1260 to 10000 nM. The molecule further showed a maximal effect (Emax) under setting [1] of 76 to 100%.

Take `COc1ccc(S(=O)(=O)N2CCN(S(=O)(=O)c3ccc(OC)c(OC)c3)C2=O)cc1OC` [Example 23, 1,3-bis{[3,4-bis(methyloxy)phenyl]sulfonyl}-2-imidazolidinone]: the half-maximal effective concentration (EC50) was 1260 to 10000 nM. Under setting [1], this molecule returned an Emax of 0 to 50%.

Molecule `COc1ccc(S(=O)(=O)N(C)CC(C)N(C)S(=O)(=O)c2ccc(OC)c(OC)c2)cc1OC` (centres unmarked) [Example 44, N,N′-1,2-propanediylbis[N-methyl-3,4-bis(methyloxy)benzenesulfonamide]] gave a concentration for a half-maximal effect (EC50) of 126 to 1000 nM. The molecule also gave an Emax under setting [1] of 51 to 75%.

`COc1ccc(S(=O)(=O)N2CCC(N(CC(C)C)S(=O)(=O)c3ccc(OC)c(OC)c3)C2)cc1OC` (centres unmarked) [Example 57, N-(1-{[3,4-bis(methyloxy)phenyl]sulfonyl}-3-pyrrolidinyl)-3,4-bis(methyloxy)-N-(2-methylpropyl)benzenesulfonamide] showed an EC50 of 1260 to 10000 nM. This molecule came in with an Emax under setting [1] of 51 to 75%.

`COc1ccc(S(=O)(=O)N2C[C@@H](C)N(S(=O)(=O)c3ccc(OC)c(OC)c3)[C@H](C)C2)cc1OC` [Example 17, (2R,6R)-1,4-bis{[3,4-bis(methyloxy)phenyl]sulfonyl}-2,6-dimethylpiperazine] showed an EC50 of 126 to 1000 nM. This molecule also returned an Emax under setting [1] of 0 to 50%.

Molecule `CCC1CN(S(=O)(=O)c2ccc(OC)c(OC)c2)C(C)CN1S(=O)(=O)c1ccc(OC)c(OC)c1` (centres unmarked) [Example 46, 1,4-bis{[3,4-bis(methyloxy)phenyl]sulfonyl}-2-ethyl-5-methylpiperazine] showed an EC50 of 1260 to 10000 nM. Under setting [1], this molecule had an Emax of 51 to 75%.

`COc1ccc(S(=O)(=O)N2CCC(NS(=O)(=O)c3cccc4cccnc34)C2)cc1OC` (centres unmarked) [Example 16, N-(1-{[3,4-bis(methyloxy)phenyl]sulfonyl}-3-pyrrolidinyl)-8-quinolinesulfonamide] had an EC50 of 1260 to 10000 nM.

For `COc1ccc(S(=O)(=O)N2CCN(S(=O)(=O)c3ccc(-c4cnco4)cc3)CC2)cc1OC` [Example 2, 1-{[3,4-bis(methyloxy)phenyl]sulfonyl}-4-{[4-(1,3-oxazol-5-yl)phenyl]sulfonyl}piperazine], the EC50 was 126 to 1000 nM. The molecule further gave a maximal response (Emax) under setting [1] of 51 to 75%.

As to `COc1ccc(S(=O)(=O)N2[C@H](C)CN(S(=O)(=O)c3ccc(-c4cnco4)cc3)C[C@@H]2C)cc1OC` [Example 34, 1-{[3,4-bis(methyloxy)phenyl]sulfonyl}-2,6-cis-dimethyl-4-{[4-(1,3-oxazol-5-yl)phenyl]sulfonyl}piperazine], the EC50 is 1260 to 10000 nM. This molecule had an Emax under setting [1] of 51 to 75%.

With `COc1ccc(S(=O)(=O)N2CCN(S(=O)(=O)c3ccc(OC)c(OC(F)(F)F)c3)CC2)cc1OC` [Example 91], the 50% effective concentration (EC50) is 126 to 1000 nM. In addition, the maximal effect (Emax) under setting [1] lay within 76 to 100%.

`COc1ccc(S(=O)(=O)N2CCN(S(=O)(=O)c3ccc(OC)c(OC)c3)C(C)C2)cc1OC` (centres unmarked) [Example 29, 1,4-bis{[3,4-bis(methyloxy)phenyl]sulfonyl}-2-methylpiperazine]: the concentration for a half-maximal effect (EC50) is 126 to 1000 nM. Besides, the Emax under setting [1] was in the range of 51 to 75%.

`COc1ccc(S(=O)(=O)N2C[C@@H](C)N(S(=O)(=O)c3ccc(OC)c(OC)c3)[C@@H](C)C2)cc1` [Example 35, 1-{[3,4-bis(methyloxy)phenyl]sulfonyl}-2,6-cis-dimethyl-4-{[4-(methyloxy)phenyl]sulfonyl}piperazine] showed an EC50 of 126 to 1000 nM. Under setting [1], this molecule came in with an Emax of 51 to 75%.

Molecule `COc1ccc(S(=O)(=O)N2C[C@@H](C)N(S(=O)(=O)c3ccc(OC)c(OC(F)(F)F)c3)[C@@H](C)C2)cc1OC` [Example 36, 4-{[3,4-bis(methyloxy)phenyl]sulfonyl}-2,6-cis-dimethyl-1-({4-(methyloxy)-3-[(trifluoromethyl)oxy]phenyl}sulfonyl)piperazine] showed an EC50 of 126 to 1000 nM. Further, the maximal response (Emax) under setting [1] lay within 51 to 75%.

In the case of `COc1ccc(S(=O)(=O)N2C[C@@H](C)N(S(=O)(=O)c3ccc(OC)c(OC)c3)[C@@H](C)C2)cc1OC` [Example 54, (2R,6S)-1,4-bis{[3,4-bis(methyloxy)phenyl]sulfonyl}-2,6-dimethylpiperazine], the 50% effective concentration (EC50) is 126 to 1000 nM. For the same molecule, the “% Max” value under setting [1] is “* (“*” = 0% to 50%)”.

The molecule `COc1cccc(S(=O)(=O)N2C[C@@H](C)N(S(=O)(=O)c3ccc(OC)c(OC)c3)[C@@H](C)C2)c1` [Example 33, 1-{[3,4-bis(methyloxy)phenyl]sulfonyl}-2,6-cis-dimethyl-4-{[3-(methyloxy)phenyl]sulfonyl}piperazine] gave an EC50 of 1260 to 10000 nM. Under setting [1], this molecule returned a maximal response (Emax) of 51 to 75%.

By Emax is commonly meant the greatest response seen or fitted, relative to the assay's reference. For orientation: EC50 means the concentration giving half of the maximal effect. Low values mean an effect from little substance, high ones a need for much substance.
